According to publication PMC9977638 (Medicinal Chemistry Research, 2023):

Target: T1, human recombinant COX-2 (Homo sapiens, UniProt P35354)
T1 sequence (P35354 18-604): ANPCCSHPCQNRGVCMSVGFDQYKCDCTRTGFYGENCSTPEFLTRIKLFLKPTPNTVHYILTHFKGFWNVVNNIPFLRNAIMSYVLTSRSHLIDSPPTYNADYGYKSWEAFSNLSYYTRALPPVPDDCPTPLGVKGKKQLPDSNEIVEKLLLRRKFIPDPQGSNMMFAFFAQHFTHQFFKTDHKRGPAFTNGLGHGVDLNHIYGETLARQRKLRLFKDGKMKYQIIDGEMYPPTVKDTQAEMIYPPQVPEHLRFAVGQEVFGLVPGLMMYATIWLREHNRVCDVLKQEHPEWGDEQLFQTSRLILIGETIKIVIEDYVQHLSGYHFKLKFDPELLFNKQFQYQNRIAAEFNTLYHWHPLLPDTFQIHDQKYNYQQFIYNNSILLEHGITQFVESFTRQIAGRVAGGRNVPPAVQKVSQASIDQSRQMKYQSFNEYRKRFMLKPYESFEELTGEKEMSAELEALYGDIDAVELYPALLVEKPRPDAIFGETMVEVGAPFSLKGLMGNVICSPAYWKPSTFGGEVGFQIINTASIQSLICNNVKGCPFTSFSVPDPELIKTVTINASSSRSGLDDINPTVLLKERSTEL
Format: biochemical
Settings: COX-1 IC50/COX-2 IC50

Cc1ccc(Nc2c(-c3ccc(S(C)(=O)=O)cc3)nc3c(C)cccn23)cc1 [Compound 5n, 8-Methyl-2-(4-(methylsulfonyl)phenyl)-N-(p-tolyl)imidazo[1,2-a]pyridin-3-amine]
Selectivity index (S.I.): 508
